Earlier results as cited in US10149481B2, “Arthropod control compositions and methods” (Tyratech, Inc., priority 2012, dated 2018).

Tests used:
[1] = for mammalian toxicity: Nentwig 2003, Frances 2007b, Moore and Debboun 2007
D. variabilis = conditions: 2 h after application, unformulated (Kimps et al. 2011)

Molecule: CCCCN(CCC(=O)OCC)C(C)=O [IR3535, 3-(N-Butyl-N-acetyl)-amino propionic acid ethyl ester]
- mammalian toxicity [1]: low mammalian toxicity

Molecule: Picaridin
- mammalian toxicity [1]: low mammalian toxicity

Molecule: CC1CCC(C(C)(C)O)C(O)C1 (centres unmarked) [PMD, p-menthane-3,8-diol]
- eye irritation ([1]; Strickman 2007): exceptionally irritating to the eyes
- rat oral and rabbit dermal toxicity ([1]; Strickman 2007): low

Molecule: CCCCCCCCCC(C)=O [2-undecanone]
- repellency (D. variabilis): 74%
